Measurements: patent US20230322933A1, “MODEL FOR PREDICTION OF TOLERABILITY ISSUES IN CONNECTION WITH INTRAVENOUS ADMINISTRATION OF THERAPEUTIC ANTIBODIES” (BIOINVENT INTERNATIONAL AB, priority 2020, published 2023)
“And” between values parts separate entries of the source, which are not always exact repeats. Equal entries are not always repeated. “Also recorded” adds a separate entry of the source.

Assays:
wildtype C57/BL6 mice [1] = experiment: Macroscopic IRRs (scoring 0-2) in mice after injection of surrogate antibody, with or without premedication or split-dosing; assay type: in vivo, mouse; parameters: key to grade of macroscopic symptoms with single premedication: 0: No visible symptoms; 1: Isolation, decreased activity; 2: Isolation, decreased activity, impaired balance, piloerection, hunching followed by un-natural body posture; settings: for inhibition of IRRs by other pre-medications: given i.p. 1 h prior to i.v. AT-130-2 IgG2a bulk dose 200 ug/mouse; for effect of anti-histamine premedication alone on IRRs / macroscopic symptoms: pre i.v. injection of 10 mg/kg AT-130-2 IgG2a; for effect of adding anti-histamine to two doses of corticosteroid: with 40 mg/kg Betamethasone (24 hours and 1 hour) pre i.v. 10 mg/kg AT-130-2 IgG2a, macroscopic symptoms and platelet counts
Method: Six to eight weeks-old (17-20 g) female C57/BL6 and Balb C mice were obtained from Taconic or Janvier. Mice were injected i.v with mouse anti-CD32B AT-130-2 IgG2a either as a bulk dose of 200 ug/mouse or as a split-dose with 8 ug/mouse followed by 200 ug/mouse.
For the corticosteroid treatment, Betapred (betamethasone, VNR: 008938, Alfasigma S.P.A.) was used at 10 mg/kg which is a suboptimal dose in these mouse models.
Split-dosing was initiated 24 h post corticosteroid treatment with 8 ug/mouse of mouse anti-CD32B AT-130-2 IgG2a i.v. followed by a bulk-dose of 200 ug/mouse 20-40 minutes later. In parallel mice were injected with only the bulk-dose.
Mice were monitored post injection with regards to changes in behavior and macroscopic symptoms such as isolation, mobility, and fur condition. Macroscopic IRRs scoring system of 0-2 was set up based on the observations.
Other premedications evaluated were anti-PAF (CV3988, sc-201015, Santa Cruz 20 mg/kg), anti-IL6 (clone 15A7, BE0047, Bioxcell, 10 mg/kg), anti-histamine (Zantac, VNR: 077875, GlaxoSmithKline AB, 5 mg/kg) or a leukotriene-antagonist (131064, Apoex, 4 mg/kg). These premedications were given i.p 1 h prior to injection i.v of mouse anti-CD32B AT-130-2 IgG2a as a bulk dose of 200 ug/mouse.
Six to eight weeks-old (17-20 g) female C57/BL6 mice were obtained from Taconic. Mice were injected either intra-venous (i.v.), […] (i.p.) or sub-cutaneous (s.c.) with mouse anti-CD32B AT-130-2 IgG2a in doses ranging from 1 μg-400 μg/mouse.
For the corticosteroid treatment, Betapred (betamethasone, VNR: 008938, Alfasigma S.P.A.) or Dexamethasone (Cat. No: S1322, batch no: 02, Selleckchem) was used. For the anti-histamine treatment Zyrlex (10 mg/ml, VNR: 523084, MACURE PHARMA ApS), Zantac (25 mg/ml, VNR: 077875, GlaxoSmithKline AB) or Aeurius (0.5 mg/ml, VNR: 097288, Merck Sharp & Dohme BV) was used.
Mice were monitored post injection with regard to changes in behavior and macroscopic symptoms such as isolation, mobility, and fur condition. Macroscopic IRRs scoring system of 0-2 was set up based on the observations: […]
For the corticosteroid treatment, Betapred (betamethasone, VNR: 008938, Alfasigma S.P.A.) or Dexamethasone (Cat. No: S1322, Batch No: 02, Selleckchem) was used.

[2] = system: human subjects with non-hodgkins B-cell lymphoma; experiment: Clinical response in patients treated with BI-1206; assay type: in vivo; settings: after incorporation of the premedication regimen into the clinical protocol
FcγRIIB = target: T1, FcγRIIB (Homo sapiens, UniProt P31994); experiment: FcgRIIb receptor occupancy on peripheral B cells (flow cytometry); assay type: in vivo; settings: 100 mg BI-1206; preliminary data
T1 construct: endogenous in cells; host or cells: peripheral CD19+ B cells in whole blood of human subjects (B-cell NHL / CLL patients)
T1 sequence (P31994 43-310): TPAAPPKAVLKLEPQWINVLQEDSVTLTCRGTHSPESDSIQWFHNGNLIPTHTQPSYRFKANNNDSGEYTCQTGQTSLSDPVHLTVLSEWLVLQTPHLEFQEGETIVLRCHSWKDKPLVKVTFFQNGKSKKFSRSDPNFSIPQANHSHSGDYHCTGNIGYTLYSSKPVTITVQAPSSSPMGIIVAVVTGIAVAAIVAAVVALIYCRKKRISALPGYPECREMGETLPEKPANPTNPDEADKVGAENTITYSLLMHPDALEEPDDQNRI
Method: The FcgRIIb receptor occupancy in humans and hFcgRIIb transgenic mice was analyzed using flow cytometry. Whole blood from was incubated with either 005-005 antibody (targeting hFcgRIIb) or anti-hCD32-AF647 antibody. 005-005 binds the same epitope as BI-1206 but with much lower affinity. In the analysis, the Geo Mean of respectively mAb (005-005 and anti-human CD32) was acquired on the CD19+ cell population. Receptor occupancy (RO) was calculated using the following equations: RO (%)=((Total Receptors-Normalized Free Receptors)*100)/Total Receptors. All replicates of 005-005 geo mean of CD19+ cells were then multiplied by the Normalization factor.

[3] = system: human subjects with non-hodgkins B-cell lymphoma; experiment: ALT/AST in clinical studies with BI-1206; settings: ≥70 mg (70-100 mg) BI-1206
From the text: (§1) Platelet counts, ALT concentrations and IRR grading Platelet counts, ALT concentrations and IRR grading were obtained from clinical sites where analyzed and reported according local standard procedures.

[4] = system: human subjects with non-hodgkins B-cell lymphoma; experiment: Infusion related reactions (IRR grading) in clinical studies with BI-1206
From the text: as §1
Part of the data is based on personal communication with individual investigators.

[5] = system: human subjects with non-hodgkins B-cell lymphoma; experiment: Platelet counts in clinical studies with BI-1206
From the text: as §1

peripheral B lymphocytes = experiment: Peripheral B lymphocyte depletion after BI-1206 infusion; assay type: in vivo, human; settings: 100 mg BI-1206; preliminary data
[6] = system: human subjects with non-hodgkins B-cell lymphoma; experiment: Cytokine release in plasma/serum after BI-1206 infusion (MSD); assay type: in vivo; settings: ≥70 mg (70-100 mg) BI-1206
Method: For cytokine concentrations, frozen plasma samples were thawed and diluted ×2 and x8. Two parallel set of cytokines were analyzed, the proinflammatory assay with IL-6, IL-8, TNF-α, IFN-γ, IL-10, IL-2 and IL-4 (MesoScale Discovery (MSD) #K15049), and the chemokine assay with MIP-113, IL-113, IL-23, IL-12p70, TARC and VEGF (MSD #K15067). The assays followed the manufacturer's protocol as outlined briefly: 50 μL of sample and calibration standard were added to the appropriate MSD plates and incubated. Following washing, 25 μL of SULFO-TAG detection antibody mixture were added to each well of the corresponding plate. The plates were analyzed on a QuickPlex SQ120 Reader instrument (MSD) and cytokine concentration was calculated using the MSD software (Discovery Workbench, 2013; version LSR-4-0-12).

wildtype C57/BL6 mice [7] = experiment: Platelet counts in fresh mouse blood (Vetscan) after antibody injection; assay type: in vivo; settings: pre i.v. injection of 10 mg/kg AT-130-2 IgG2a
Method: Blood samples were collected from vena saphena 20 min post injection of bulk dose of anti-CD32B for instant blood count analysis. For liver enzyme and cytokine analysis, the mice were bled from the aorta under isoflurane anesthesia just prior to sacrifice. Samples for liver enzymes and cytokines were collected 1 h and respectively 3 h after bulk dose.
Platelet counts were analyzed in fresh blood using a Vetscan (Vetscan HM5 Abaxis, Triolab).
Blood samples were collected from vena saphena for instant blood count analysis. For serum concentrations of AT130-2, liver enzyme and cytokine analysis, the mice were bled from the aorta under isoflurane anesthesia just prior to sacrifice.
Blood samples were collected from vena saphena for instant blood count analysis.

mouse CD32B (mouse) = mouse CD32B (mouse) (UniProt P08101); experiment: receptor saturation at 10 µg/ml AT-130-2; separate experiments not shown in the filing
Chain of mouse CD32B (mouse) (P08101 30-207 limits assumed): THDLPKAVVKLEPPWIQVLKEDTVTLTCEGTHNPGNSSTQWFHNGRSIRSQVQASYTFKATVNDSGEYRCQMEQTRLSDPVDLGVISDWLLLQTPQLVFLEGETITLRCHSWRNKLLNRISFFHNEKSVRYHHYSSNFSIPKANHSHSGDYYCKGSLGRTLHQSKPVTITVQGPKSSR

`C[C@H]1C[C@H]2[C@@H]3CCC4=CC(=O)C=C[C@]4(C)[C@@]3(F)[C@@H](O)C[C@]2(C)[C@@]1(O)C(=O)CO` [betamethasone] was tested, and the “grade of macroscopic symptoms with single premedication” value (wildtype C57/BL6 mice [1]; 40 mg/kg only 24 hours before i.v. 10 mg/kg AT-130-2 IgG2a) was 1.

For `CCCCCCCCCCCCCCCCCCNC(=O)OCC(COP(=O)([O-])OCC[n+]1ccsc1)OC` (stereo not drawn) [anti-PAF], the “inhibition of IRRs by other pre-medications” value (wildtype C57/BL6 mice [1]) was “None of these pre-medications could inhibit IRRs; also recorded: none of the tested substances (anti-PAF, anti-IL-6, anti-histamine and a leukotrien-antagonist) could prevent the IRRs”.

In the case of “BI-1206: anti-FcγRIIb antibody with light chain SEQ ID No:1 and heavy chain SEQ ID No:2”, the clinical responses [2] is reported as “Both complete and partial responses have been observed”, the “duration of receptor saturation” value (FcγRIIB) is reported as “up to 48 hours” and the “receptor occupancy on peripheral B cells” value (FcγRIIB) is reported as ~100%. For the same molecule, the “subjects with significant ALT and AST increase” value [3] was 3/14 and 3 out of 16, the “grade of IRR's” value ([4]; 30 mg BI-1206, subject 201-003, 10th administration, two doses of dexamethasone) was 1 and the IRRs ([4]; 70 mg BI-1206, subjects 501-001 and 503-002, dexamethasone 12 mg or 4 mg the evening before and 20 mg 30 minutes prior) was “None of the subjects suffered any IRRs; also recorded: Both subjects did not suffer IRRs”. The “grade of IRRs” value ([4]; 70 mg BI-1206, subjects 501-001 and 503-002, dexamethasone (20 mg) only 30 minutes prior to infusion) was 2-3 grade, the “severity and frequency of IRRs after implementation of premedication with two doses of corticosteroids” value ([4]; 70-100 mg BI-1206, study 17-BI-1206-02) was “Significantly lower frequency and severity of IRRs; also recorded: statistically significant reduced severity and frequency of IRRs” and the “infusion related reactions during BI-1206 infusions” value ([4]; i.v. administration, human subjects) was “frequently associated with IRRs; also recorded: Frequent infusion related reactions (IRRs) have been seen”. For the same molecule, the platelet decrease ([5]; 70 mg BI-1206, subjects 501-001 and 503-002, two doses of dexamethasone) was “no/low platelet decrease”, the “seriousness and resolution of thrombocytopenia” value ([5]; 70-100 mg / ≥50 mg BI-1206) was “The decrease is transient and most episodes have been resolved within a week; also recorded: has not been serious nor associated with bleeding and most episodes resolved within a week” and the platelets ([5]; ≥50 mg BI-1206) was “transient decrease in platelets”. The “peripheral B lymphocytes” value (peripheral B lymphocytes) was “transient depletion of peripheral B lymphocytes”, the “time to recovery of peripheral B lymphocytes” value (peripheral B lymphocytes) was “approximately 7 days” and the “time to normalization of cytokines” value [6] was ≤ 24 h.

In the case of `CC(C)(C)c1ccc(C(O)CCCN2CCC(C(O)(c3ccccc3)c3ccccc3)CC2)cc1` (stereo not drawn) [anti-histamine], the “effect of anti-histamine premedication alone on platelet decrease” value (“effect … on platelet decrease” for short) (wildtype C57/BL6 mice [7]) is reported as “did seem to improve decrease in platelet counts”, the “inhibition of IRRs by other pre-medications” value (wildtype C57/BL6 mice [1]) is reported as “None of these pre-medications could inhibit IRRs; also recorded: none of the tested substances (anti-PAF, anti-IL-6, anti-histamine and a leukotrien-antagonist) could prevent the IRRs” and the “effect of anti-histamine premedication alone on IRRs / macroscopic symptoms” value (from here on “effect … on IRRs / macroscopic symptoms”) (wildtype C57/BL6 mice [1]) is reported as “did not inhibit macroscopic symptoms”. For the same molecule, the “effect of adding anti-histamine to two doses of corticosteroid” value (shortened to “effect of adding anti-histamine”) (wildtype C57/BL6 mice [1]) was “did not affect macroscopic symptoms or platelet counts”.

For AT-130-2 IgG2a (antibody), the receptor saturation (mouse CD32B (mouse)) was 100%.

In the case of `O=C(O)COCCN1CCN(C(c2ccccc2)c2ccc(Cl)cc2)CC1` (centres unmarked) [Zyrlex], the “effect … on platelet decrease” value (wildtype C57/BL6 mice [7]) is reported as “did not inhibit IRRs or platelet decrease”, the “effect … on IRRs / macroscopic symptoms” value (wildtype C57/BL6 mice [1]; 10 mg/kg) is reported as “The same results were seen; also recorded: did not inhibit IRRs or platelet decrease” and the “effect of adding anti-histamine” value (wildtype C57/BL6 mice [1]) is reported as “the protective effect was retained”.

With `Clc1ccc2c(c1)CCc1cccnc1C2=C1CCNCC1` [Aeurius] the “effect … on platelet decrease” value (wildtype C57/BL6 mice [7]) was “did not inhibit IRRs or platelet decrease”, the “effect … on IRRs / macroscopic symptoms” value (wildtype C57/BL6 mice [1]; 10 mg/kg) was “did not inhibit IRRs or platelet decrease” and the “effect … on IRRs / macroscopic symptoms” value (wildtype C57/BL6 mice [1]; listed as Au, 10 mg/kg) was “The same results were seen”. The “effect of adding anti-histamine” value (wildtype C57/BL6 mice [1]) was “the protective effect was retained”.
